Laboratory results: patent US20210228463A1, “COMPOSITION FOR FAT FORMATION INHIBITION AND BODY FAT REDUCTION, CONTAINING HYDRANGENOL AS ACTIVE INGREDIENT” (COSMAX BIO CO., LTD., priority 2019, published 2021)

Key:
[1] = Effects of HG on liver and kidney (serum GOT, GPT, BUN); assay type: in vivo, mice
Protocol: (§1) To analyze in vivo anti-obesity efficacy of HG, animal models of obesity were prepared. 8-week-old male C57BL/6N mice (SPF grade, 20±2 g, Orient Bio) were set into 7 groups as follows, and 10 mice per each group were tested: as normal control groups, normal mice (con) with no high fat diet and no administration, and obese mice (HFD) with induction of obesity by 30% high fat diet and no administration, and as a positive control group, obese mice with oral administration of orlistat which is an anti-obesity agent. As experimental groups, obese mice with oral administration of HG of 20 mg/kg, 40 mg/kg, or 80 mg/kg, and normal mice with oral administration of HG of 80 mg/kg were used. Mice were administered with HG at the same time with induction of obesity, and HG was administered for 5 days per week for 12 weeks. A dark: light cycle was maintained at intervals of 12 hours: 12 hours, and mice were allowed to free access to water. To examine whether HG induced liver and kidney damage, glutamic oxalacetic transaminase (GOT), glutamic pyruvate transaminase (GPT), and blood urea nitrogen (BUN) were measured by serum analysis using a biochemical analyzer (AU480 Chemistry Analyzer, Beckman coulter, Calif., USA).

3T3-L1 cells = assay: Fat accumulation inhibition in adipocytes (Oil Red O staining); assay type: cell-based; details: 3T3-L1 adipocytes, hydrangenol 2.5 ug/ml
Protocol: In this experiment, to induce adipocyte differentiation, 3T3-L1 cells were dispensed onto a plate and cultured in a 10% BS medium until the cell density reached 100%. At the cell differentiation stage, hydrangenol-containing hydrangea (Hydrangea serrata) (25 ug/ml), hydrangenol (2.5 ug/ml) or a positive control pioglatazone (10 uM) was added to a 10% FBS differentiation medium (5 μg/ml of insulin, 1 μM dexametasone, 0.5 mM 3-isobutyl-1-methylxanthine), respectively. After 10 days of treatment oil Red-O staining and quantitative analysis were performed to determine how much fat accumulation was inhibited. For visual evaluation, images were taken after staining, and then the stained cells were completely dried, dissolved in dimethyl sulfoxide (DMSO), transferred to a 96-well plate, and absorbance at 450 nm was measured.

[2] = Changes of blood triglyceride and blood cholesterol by HG; assay type: in vivo, mice; details: blood
Protocol: as §1, with “analyze the effects of” for “examine whether”, “on blood triglyceride” for “induced liver and kidney damage, glutamic oxalacetic transaminase (GOT), glutamic pyruvate transaminase (GPT),”, “cholesterol, a hematological-biochemical test was performed” for “urea nitrogen (BUN) were measured by serum analysis”

forkhead box 01 (FoxO1) = assay: Western blotting of p-FOXO1 in adipocytes; assay type: cell-based; details: 3T3-L1 differentiated for 10 days, hydrangenol 2.5 ug/ml, 24 hours, FIG. 3
Protocol: (§2) The mechanism of reducing triglyceride in adipocytes was examined for the hydrangenol-containing hydrangea (Hydrangea serrata) and hydrangenol. A pre-adipocyte 3T3-L1 was differentiated for 10 days and treated with hydrangea (Hydrangea serrata) (25 ug/ml) and hydrangenol (2.5 ug/ml) for 24 hours, respectively. Thereafter, the cells were lysed using a modified LIPA buffer, and each 20 ug thereof was used for analysis. p-mTOR(ab109268, Abcam), p-FOXO1(9461S, Cell Signaling), PPARγ(sc-7273, Santa Cruz), and β-actin(A5316, Sigma) primary antibodies were used for analysis, respectively.

[3] = Body weight- and fat-reducing effects of HG in obese mice; assay type: in vivo; details: obese mice (HFD); for changes in the body weight: oral administration at the same time with induction of obesity, 5 days per week for 12 weeks, FIG. 13; for body fat (dual-energy X-ray absorptiometry, fat weight): oral administration, 12 weeks, FIGS. 14 and 15
Protocol: To analyze in vivo anti-obesity efficacy of HG, animal models of obesity were prepared. 8-week-old male C57BL/6N mice (SPF grade, 20±2 g, Orient Bio) were set into 7 groups as follows, and 10 mice per each group were tested: as normal control groups, normal mice (con) with no high fat diet and no administration, and obese mice (HFD) with induction of obesity by 30% high fat diet and no administration, and as a positive control group, obese mice with oral administration of orlistat which is an anti-obesity agent. As experimental groups, obese mice with oral administration of HG of 20 mg/kg, 40 mg/kg, or 80 mg/kg, and normal mice with oral administration of HG of 80 mg/kg were used. Mice were administered with HG at the same time with induction of obesity, and HG was administered for 5 days per week for 12 weeks. A dark: light cycle was maintained at intervals of 12 hours: 12 hours, and mice were allowed to free access to water. An experiment was performed to analyze whether the body weight and fat of mice decreased when HG was administered. […] In addition, images of a fat distribution and body fat contents of mice of each experimental group were measured by dual-energy X-ray absorptiometry in the last week of the animal test. Each mice was sacrificed, and a visceral adipose tissue including epididymal fat was separated and a fat was weighed. The experimental results were tested for a significant difference between groups using a t-test in the Sigma plot statistical program (p#<0.05 vs normal control, p*<0.05, r<0.01, P***<0.001 vs obese group). As a result, it was confirmed that body fat was decreased in the positive control group and the HG-administered group (FIGS. 14 and 15).

PPARγ = assay: Western blotting of PPARγ expression in adipocytes; assay type: cell-based; details: 3T3-L1 differentiated for 10 days, hydrangenol 2.5 ug/ml, 24 hours, FIG. 3
Protocol: as §2

[4] = HG-administered group, Table 4 and FIG. 17
[5] = obese mice (HFD) + HG 20 mg/kg oral, 12 weeks
[6] = obese mice (HFD) + HG 40 mg/kg oral, 12 weeks
[7] = obese mice (HFD) + HG 80 mg/kg oral, 12 weeks
[8] = serum, obese mice (HFD) + oral orlistat
[9] = obese mice (HFD) + oral orlistat

## O=C1OC(c2ccc(O)cc2)Cc2cccc(O)c21 (centres unmarked) [HG, 8-hydroxy-3-(4-hydroxyphenyl)-3,4-dihydroisochromen-1-one]
[1]; mouse, in vivo
  GOT, GPT and BUN, difference between 7 groups: no significant difference
3T3-L1 cells
  triglyceride production in adipocytes: suppressed
[2]; HG-administered group, Table 4
  HDL level: no significant difference
  triglyceride level: no significant difference
[2]; [4]
  LDL: reduction
  total cholesterol: reduction
[2]; normal mice + HG 80 mg/kg oral
  CHOL: 96.20 mg/dL
  HDL: 66.40 mg/dL
  LDL: 5.70 mg/dL
  TG: 80.10 mg/dL
[2]; [5]
  CHOL: 126.78 mg/dL
  HDL: 80.78 mg/dL
  LDL: 7.78 mg/dL
  TG: 74.63 mg/dL
[2]; [6]
  CHOL: 112.56 mg/dL
  HDL: 71.89 mg/dL
  LDL: 7.38 mg/dL
  TG: 58.89 mg/dL
[2]; [7]
  CHOL: 110.14 mg/dL
  HDL: 71.20 mg/dL
  LDL: 7.13 mg/dL
  TG: 63.78 mg/dL
Forkhead box 01 (FoxO1)
  phosphorylation of forkhead box 01 (FoxO1): increase
[3]
  changes in the body weight: body weight-reducing effects were observed
  body fat (dual-energy X-ray absorptiometry, fat weight): decreased
PPARγ
  expression level of peroxisome proliferator-activated receptor gamma y (PPAR): reduction

## CCCCCCCCCCC[C@@H](C[C@@H]1OC(=O)[C@H]1CCCCCC)OC(=O)[C@H](CC(C)C)NC=O [Orlistat, orlistat]
[1]; [8]
  BUN: 19.89 mg/dL
  GOT: 63 U/L
  GPT: 17.6 U/L
[2]; [9]
  CHOL: 115.63 mg/dL
  HDL: 83.70 mg/dL
  LDL: 8.60 mg/dL
  TG: 76.40 mg/dL
[3]
  changes in the body weight: body weight-reducing effects were observed
  body fat (dual-energy X-ray absorptiometry, fat weight): decreased
